Data reported in patent US8906430B2, “Use of hypericum perforatum extracts in the treatment of neuropathic pain” (Aboca S.p.A. Societa' Agricola, priority 2008, dated 2014).

Assays:
neuropathic pain = assay: Experimental models of neuropathic pain (summary statements); type: in vivo, rodents; conditions: for Ability to reduce neuropathic pain: isolated phloroglucinol derivatives
Procedure: The studies were conducted on rodents, which have always constituted a good animal model to reproduce the characteristics of human pain symptoms and predict possible remedies.

[1] = test system: monosodium iodoacetate-induced osteoarthritis pain; assay: Pain caused by monosodium iodoacetate-induced osteoarthritis of the knee, rat paw pressure test; type: in vivo; conditions: MIA, 0.11 mg/kg p.o.
Source text: The reduction in the pain threshold was induced by a single administration of monoiodoacetate (MIA) into the […] of the rat (Ref. 27). [table]

[2] = test system: mononeuropathy induced by ligature of the sciatic nerve; assay: Right-side mononeuropathy induced by ligature of the sciatic nerve, rat paw pressure test; type: in vivo; design: unit not given beside the values; conditions: 0.11 mg/kg p.o.
Procedure: Neuropathic pain is characterised by the development of an altered perception of pain, which is manifested as continuous spontaneous pain and hyperalgesia. In this model, the rats were anaesthetised with chloral hydrate 400 mg/kg i.p. or sodium pentobarbital 40 mg/kg i.p. The sciatic nerve was then exposed at thigh level by retracting the femoral biceps. Proximally to the trifurcation of the sciatic nerve, approx. 7 mm of nerve was released from the membranes and 4 loose ligatures were tied round the nerve, approx. 1 mm apart. In another group of animals an identical incision was made, but without the nerve ligature (sham operation). Neuropathy developed in 14 days. The tests with the potentially analgesic substances were performed on the 14th and 21st days after the operation using the paw pressure test (ref. 24).
Using the same method as in Example 2, the following results were obtained by administering hypericin at the doses indicated in Table 6.

[3] = test system: oxaliplatin-induced hyperalgesia; assay: Oxaliplatin-induced hyperalgesia, rat paw pressure test; type: in vivo; conditions: oxaliplatin i.p., hypericin 0.11 mg/kg + CMC p.o., single administration
Procedure: A reduction in the pain threshold was induced by administering oxaliplatin 2.4 mg/kg for 5 consecutive days for a total of 3 weeks. By the end of the treatment period, the pain perception threshold of the rats was statistically lower than that of the controls (Ref. 23). Using the same method as in Example 1, the following results were obtained by administering hypericin at the doses indicated in Table 5.

Q: `CCC(C)C(=O)[C@@]12C(=O)C(CC=C(C)C)=C(O)[C@@](CC=C(C)C)(C[C@H](CC=C(C)C)[C@@]1(C)CCC=C(C)C)C2=O` (stereo partly drawn) [adihyperforin] was tested. Which “Ability to reduce neuropathic pain” value (neuropathic pain) did it give?
A: unable to reduce neuropathic pain

Q: `Cc1cc(O)c2c(=O)c3c(O)cc(O)c4c5c(O)cc(O)c6c(=O)c7c(O)cc(C)c8c1c2c(c34)c(c78)c65` [HYPERICIN, hypericin] was tested. Which “Rat paw pressure test” value ([1]; 15 min after treatment) did it give?
A: 45.9 ± 2.7

Q: And the “Rat paw pressure test” value ([1]; 30 min after treatment)?
A: 49.7 ± 3.8

Q: And the “Rat paw pressure test” value ([1]; 45 min after treatment)?
A: 42.8 ± 3.9

Q: And the “Rat paw pressure test” value ([1]; 60 min after treatment)?
A: 31.7 ± 3.5

Q: And the “Rat paw pressure test” value ([1]; Pre-test)?
A: 23.4 ± 3.3

Q: And the “Rat paw pressure test (Paw)” value ([2]; paw L, 4 min after treatment)?
A: 24.8 ± 3.9

Q: And the “Rat paw pressure test (Paw)” value ([2]; paw L, 15 min after treatment)?
A: 23.8 ± 3.3

Q: What about the “Rat paw pressure test (Paw)” value ([2]; paw L, 30 min after treatment) of the same compound?
A: 22.7 ± 2.1

Q: What about the “Rat paw pressure test (Paw)” value ([2]; paw L, 60 min after treatment) of the same compound?
A: 21.5 ± 3.0

Q: And the “Rat paw pressure test (Paw)” value ([2]; paw L, before treatment)?
A: 21.6 ± 2.7

Q: What about the “Rat paw pressure test (Paw)” value ([2]; paw R, 4 min after treatment) of the same compound?
A: 41.6 ± 2.7

Q: And the “Rat paw pressure test (Paw)” value ([2]; paw R, 15 min after treatment)?
A: 28.1 ± 1.2

Q: What about the “Rat paw pressure test (Paw)” value ([2]; paw R, 30 min after treatment) of the same compound?
A: 43.7 ± 2.0

Q: What about the “Rat paw pressure test (Paw)” value ([2]; paw R, 60 min after treatment) of the same compound?
A: 25.9 ± 2.2

Q: And the “Rat paw pressure test (Paw)” value ([2]; paw R, before treatment)?
A: 24.3 ± 4.6

Q: And the “Pressure on rats' paws” value ([3]; 3rd week + 15 min)?
A: 44.1 ± 2.8 g

Q: What about the “Pressure on rats' paws” value ([3]; 3rd week + 30 min) of the same compound?
A: 55.0 ± 2.2 g

Q: And the “Pressure on rats' paws” value ([3]; 3rd week + 45 min)?
A: 53.3 ± 2.6 g

Q: And the “Pressure on rats' paws” value ([3]; 3rd week + 60 min)?
A: 31.3 ± 3.0 g

Q: What about the “Pressure on rats' paws” value ([3]; 3rd week Pre-test) of the same compound?
A: 32.4 ± 2.0 g

Q: What about the “Pressure on rats' paws” value ([3]; Pre-test before all treatments) of the same compound?
A: 63.2 ± 3.5 g

Q: And the “Activity on neuropathic pain” value (neuropathic pain; at a dose corresponding to its concentration in freeze-dried extracts)?
A: active

Q: How did the “Ability to reduce neuropathic pain” value (neuropathic pain) turn out when `CC(C)=CCC[C@]1(C)[C@@H](CC=C(C)C)C[C@@]2(CC=C(C)C)C(=O)[C@]1(C(=O)C(C)C)C(=O)C(CC=C(C)C)=C2O` [hyperforin] was run?
A: unable to reduce neuropathic pain
